Results published in patent publication US11965039B2, “Compstatin analogues and their medical uses” (priority 2018, dated 2024).
Where two headings read alike, the source gives them in different places. Starred links: 1 amine or outer side, 2 acyl side, 3 side chain; linkers in the order of their positions; H or OH if unused. Positions of bridges follow the written chain, without caps; N, C: chain ends. Non-standard residues stand in square brackets, D forms with d. Residues, ends and D or L forms follow the SMILES beside them. Groups on a side chain read outwards from the residue. *: point of attachment. Trp(1-Me) = Cn1cc(C[C@H](N)C(=O)O)c2ccccc21; C16 diacid = O=C(O)CCCCCCCCCCCCCCC(=O)*; γGlu = O=C(O)[C@H](CCC(=O)[*:2])N[*:1]; AEEA = NCCOCCOCC(=O)O; Sar = CNCC(=O)O

What was measured:
[1] = Solubility test at 10 mg/mL (visual inspection and light scattering); format: physicochemical
[2] = tested on: classical complement pathway; test: In vitro haemolysis assay (inhibition of classical complement pathway); format: cell-based, human; settings: human serum, sensitized sheep red blood cells
In short: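 Compound dilutions preincubated 15 min at room temperature with diluted human serum (titrated per batch for 70-90% maximal haemolysis), then antibody-sensitized sheep RBC (10^7/well) added for 30 min at 37 °C in Tris/casein buffer, pH 7.4. Stopped with EDTA; haemolysis read at 405 nm; IC50 by 4PL fit.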

[3] = Table 3, given as upper bounds, read-out: IC50, inhibition of hemolysis
[4] = Table 4, valine 3 vs isoleucine 3 pairs, read-out: CP hemolysis IC50

| SMILES | Solubility, Condition 1 ([1]; Acetate pH 4) | Solubility, Condition 2 ([1]; Acetate pH 5) | Solubility, Condition 3 ([1]; Phosphate pH 6) | Solubility, Condition 4 ([1]; Phosphate pH 7) | Solubility, Condition 5 ([1]; Phosphate pH 7.5) | IC50 [2, 3] [nM] | IC50 [2, 4] [nM] | Solubility, condition 4 ([1]; Phosphate pH 7) | Solubility, condition 5 ([1]; Phosphate pH 7.5) | Solubility, Condition 1 ([1]; acetate pH 4.0, visual inspection and absorbance) | Solubility, Condition 2 ([1]; acetate pH 5.0, visual inspection and absorbance) | Solubility, Condition 3 ([1]; phosphate pH 6.0, visual inspection and absorbance) |
| --- | --- | --- | --- | --- | --- | --- | --- | --- | --- | --- | --- | --- |
| CC[C@H](C)[C@H](NC(=O)[C@H](C)NC(=O)[C@H](CO)NC(=O)[C@H](CO)NC(=O)[C@H](CCC(=O)O)NC(C)=O)C(=O)N[C@H]1CSSC[C@@H](C(=O)N[C@H](C(N)=O)[C@@H](C)O)NC(=O)[C@H](CCCNC(=N)N)NC(=O)[C@H](Cc2c[nH]cn2)NC(=O)[C@H](CCC(=O)O)NC(=O)CNC(=O)[C@H](Cc2c[nH]c3ccccc23)NC(=O)[C@H](CC(=O)O)NC(=O)[C@H](CCC(N)=O)NC(=O)[C@H](Cc2c[nH]c3ccccc23)NC(=O)[C@H]([C@@H](C)CC)NC1=O [Compound 3] (Ac-ESSAICIWQDWGEHRCT-NH2; disulfide 6-16) | + (“+” denotes solubility at the given condition, as determined by UV absorbance being less than 0.1 AU at 340 nm and the sample being clear when manually inspected) | − (“−” denotes lack of solubility at the given condition, as UV absorbance at 340 nm exceeds 0.1 AU and/or it is visibly turbid or contains particles) | − (“−” denotes lack of solubility at the given condition, as UV absorbance at 340 nm exceeds 0.1 AU and/or it is visibly turbid or contains particles) | + (“+” denotes solubility at the given condition, as determined by UV absorbance being less than 0.1 AU at 340 nm and the sample being clear when manually inspected) | + (“+” denotes solubility at the given condition, as determined by UV absorbance being less than 0.1 AU at 340 nm and the sample being clear when manually inspected) | < 100 | 69 | – | – | – | – | – |
| CC[C@H](C)[C@@H]1NC(=O)[C@@H](NC(=O)[C@@H](NC(=O)[C@H](CCC(=O)O)NC(=O)[C@H](CO)NC(C)=O)[C@@H](C)CC)CSSC[C@@H](C(=O)N[C@H](C(=O)N[C@@H](CCC(=O)O)C(=O)N[C@@H](C)C(N)=O)[C@@H](C)O)NC(=O)[C@H](CCCNC(=N)N)NC(=O)[C@H](Cc2c[nH]cn2)NC(=O)[C@H](CCC(=O)O)NC(=O)CNC(=O)[C@H](Cc2c[nH]c3ccccc23)NC(=O)[C@H](CC(=O)O)NC(=O)[C@H](CCC(N)=O)NC(=O)[C@H](Cc2c[nH]c3ccccc23)NC1=O [Compound 32] (Ac-SEICIWQDWGEHRCTEA-NH2; disulfide 4-14) | − (“−” denotes lack of solubility at the given condition, as UV absorbance at 340 nm exceeds 0.1 AU and/or it is visibly turbid or contains particles) | − (“−” denotes lack of solubility at the given condition, as UV absorbance at 340 nm exceeds 0.1 AU and/or it is visibly turbid or contains particles) | − (“−” denotes lack of solubility at the given condition, as UV absorbance at 340 nm exceeds 0.1 AU and/or it is visibly turbid or contains particles) | + (“+” denotes solubility at the given condition, as determined by UV absorbance being less than 0.1 AU at 340 nm and the sample being clear when manually inspected) | + (“+” denotes solubility at the given condition, as determined by UV absorbance being less than 0.1 AU at 340 nm and the sample being clear when manually inspected) | < 100 | – | – | – | – | – | – |
| CC[C@H](C)[C@@H]1NC(=O)[C@@H](NC(=O)[C@H](Cc2ccc(O)cc2)NC(=O)[C@H](C)NC(=O)[C@H](CO)NC(=O)CNC(=O)[C@H](CCC(=O)O)NC(C)=O)CSSC[C@@H](C(=O)N(C)CC(=O)N[C@@H](CCC(=O)O)C(N)=O)NC(=O)[C@H](CCCCNC(=O)COCCOCCNC(=O)COCCOCCNC(=O)CC[C@H](NC(=O)CCCCCCCCCCCCCCC(=O)O)C(=O)O)NC(=O)[C@H](Cc2c[nH]cn2)NC(=O)[C@H](CCC(=O)O)NC(=O)CNC(=O)[C@H](Cc2c[nH]c3ccccc23)NC(=O)[C@H](CC(=O)O)NC(=O)[C@H](CCC(N)=O)NC(=O)[C@H](Cc2cn(C)c3ccccc23)NC1=O [Compound 103, Ac-EGSAYC(1)I[1-Me-Trp]QDWGEH-[K([15-carboxy-pentadecanoyl][γGlu][Peg3][Peg3])]-C(1)[Sar]E-NH2] (Ac-EGSAYCI[Trp(1-Me)]QDWGEHK([AEEA-AEEA-γGlu-C16 diacid])C[Sar]E-NH2; disulfide 6-16) | − (“−” denotes lack of solubility at the given condition, as UV absorbance at 340 nm exceeds 0.1 AU and/or it is visibly turbid or contains particles) | + (“+” denotes solubility at the given condition, as determined by UV absorbance being less than 0.1 AU at 340 nm and the sample being clear when manually inspected) | + (“+” denotes solubility at the given condition, as determined by UV absorbance being less than 0.1 AU at 340 nm and the sample being clear when manually inspected) | + (“+” denotes solubility at the given condition, as determined by UV absorbance being less than 0.1 AU at 340 nm and the sample being clear when manually inspected) | + (“+” denotes solubility at the given condition, as determined by UV absorbance being less than 0.1 AU at 340 nm and the sample being clear when manually inspected) | < 100 | – | – | – | – | – | – |
| CC[C@H](C)[C@@H]1NC(=O)[C@@H](NC(=O)[C@H](Cc2ccccc2)NC(C)=O)CSSC[C@@H](C(=O)N[C@H](C(=O)NCC(=O)N[C@@H](C)C(=O)N[C@@H](CCC(=O)O)C(=O)N[C@@H](CO)C(N)=O)[C@@H](C)O)NC(=O)[C@H](CCCNC(=N)N)NC(=O)[C@H](Cc2c[nH]cn2)NC(=O)[C@H](CCC(=O)O)NC(=O)CN(C)C(=O)[C@H](Cc2c[nH]c3ccccc23)NC(=O)[C@H](CC(=O)O)NC(=O)[C@H](CCC(N)=O)NC(=O)[C@H](Cc2cn(C)c3ccccc23)NC1=O [Compound 72, Ac-FC(1)I[1-Me-Trp]QDW[Sar]EHRC(1)TGAES-NH2] (Ac-FCI[Trp(1-Me)]QDW[Sar]EHRCTGAES-NH2; disulfide 2-12) | − (“−” denotes lack of solubility at the given condition, as UV absorbance at 340 nm exceeds 0.1 AU and/or it is visibly turbid or contains particles) | − (“−” denotes lack of solubility at the given condition, as UV absorbance at 340 nm exceeds 0.1 AU and/or it is visibly turbid or contains particles) | + (“+” denotes solubility at the given condition, as determined by UV absorbance being less than 0.1 AU at 340 nm and the sample being clear when manually inspected) | + (“+” denotes solubility at the given condition, as determined by UV absorbance being less than 0.1 AU at 340 nm and the sample being clear when manually inspected) | + (“+” denotes solubility at the given condition, as determined by UV absorbance being less than 0.1 AU at 340 nm and the sample being clear when manually inspected) | < 100 | – | – | – | – | – | – |
| CC[C@H](C)[C@H](NC(C)=O)C(=O)N[C@H]1CSSC[C@@H](C(=O)N[C@H](C(=O)NCC(=O)N[C@@H](C)C(=O)N[C@@H](CCC(=O)O)C(=O)N[C@@H](CO)C(N)=O)[C@@H](C)O)NC(=O)[C@H](CCCNC(=N)N)NC(=O)[C@H](Cc2c[nH]cn2)NC(=O)[C@H](CCC(=O)O)NC(=O)CNC(=O)[C@H](Cc2c[nH]c3ccccc23)NC(=O)[C@H](CC(=O)O)NC(=O)[C@H](CCC(N)=O)NC(=O)[C@H](Cc2cn(C)c3ccccc23)NC(=O)[C@H]([C@@H](C)CC)NC1=O [Compound 51] (Ac-ICI[Trp(1-Me)]QDWGEHRCTGAES-NH2; disulfide 2-12) | − (“−” denotes lack of solubility at the given condition, as UV absorbance at 340 nm exceeds 0.1 AU and/or it is visibly turbid or contains particles) | − (“−” denotes lack of solubility at the given condition, as UV absorbance at 340 nm exceeds 0.1 AU and/or it is visibly turbid or contains particles) | + (“+” denotes solubility at the given condition, as determined by UV absorbance being less than 0.1 AU at 340 nm and the sample being clear when manually inspected) | + (“+” denotes solubility at the given condition, as determined by UV absorbance being less than 0.1 AU at 340 nm and the sample being clear when manually inspected) | + (“+” denotes solubility at the given condition, as determined by UV absorbance being less than 0.1 AU at 340 nm and the sample being clear when manually inspected) | < 100 | – | – | – | – | – | – |
| CC[C@H](C)[C@H](NC(C)=O)C(=O)N[C@H]1CSSC[C@@H](C(=O)N[C@H](C(=O)N[C@@H](CCC(=O)O)C(=O)NCC(=O)N[C@@H](CCC(=O)O)C(N)=O)[C@@H](C)O)NC(=O)[C@H](CCCNC(=N)N)NC(=O)[C@H](Cc2c[nH]cn2)NC(=O)[C@H](CCC(=O)O)NC(=O)CNC(=O)[C@H](Cc2c[nH]c3ccccc23)NC(=O)[C@H](CC(=O)O)NC(=O)[C@H](CCC(N)=O)NC(=O)[C@H](Cc2c[nH]c3ccccc23)NC(=O)[C@H]([C@@H](C)CC)NC1=O [Compound 24] (Ac-ICIWQDWGEHRCTEGE-NH2; disulfide 2-12) | − (“−” denotes lack of solubility at the given condition, as UV absorbance at 340 nm exceeds 0.1 AU and/or it is visibly turbid or contains particles) | − (“−” denotes lack of solubility at the given condition, as UV absorbance at 340 nm exceeds 0.1 AU and/or it is visibly turbid or contains particles) | − (“−” denotes lack of solubility at the given condition, as UV absorbance at 340 nm exceeds 0.1 AU and/or it is visibly turbid or contains particles) | + (“+” denotes solubility at the given condition, as determined by UV absorbance being less than 0.1 AU at 340 nm and the sample being clear when manually inspected) | + (“+” denotes solubility at the given condition, as determined by UV absorbance being less than 0.1 AU at 340 nm and the sample being clear when manually inspected) | < 100 | 90 | good | good | cloudy | cloudy | cloudy |
